From patent US10899790B2, “Method for modifying T cell population” (OSAKA UNIVERSITY, priority 2016, dated 2021)

Biological target: T1, Retinol Dehydrogenase 10 (RDH10) (Homo sapiens, UniProt Q8IZV5)
T1 construct: expressed in transfected cells; host or cells: 293T (microsomal fraction)
T1 sequence (Q8IZV5 1-341): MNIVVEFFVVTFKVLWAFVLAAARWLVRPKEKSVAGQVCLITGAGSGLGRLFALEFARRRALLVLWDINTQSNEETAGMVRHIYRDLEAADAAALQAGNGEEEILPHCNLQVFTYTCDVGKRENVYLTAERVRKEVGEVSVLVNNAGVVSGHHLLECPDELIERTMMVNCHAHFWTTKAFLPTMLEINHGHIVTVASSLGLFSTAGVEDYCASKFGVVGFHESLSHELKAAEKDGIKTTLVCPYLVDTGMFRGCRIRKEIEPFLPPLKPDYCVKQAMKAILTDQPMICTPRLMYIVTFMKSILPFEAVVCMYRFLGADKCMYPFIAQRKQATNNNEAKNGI
Assay: Inhibition of RDH10 enzyme activity (microsomal fraction of RDH10-expressed 293T, all-trans retinol to all-trans retinal, HPLC)
Format: biochemical
Details: final concentration of 20 μM; relative to DMSO control (FIG. 1)
Description: All-trans retinol, BSA, and NAD (nicotinamide adenine dinucleotide) as a coenzyme were added to a buffer for reaction (90 mM potassium phosphate buffer, pH7.4, 40 mM KCl) so as to have final concentrations of 10 μM, 10 μM, and 1 mM respectively. This mixture was taken in siliconized tubes by 200 μl for each, the microsomal fractions separated from 293T and RDH10-expressed 293T were added to separate tubes by 10 μl for each, and the mixtures were allowed to react at 37° C. for 15 minutes. After 200 μl of methanol was added to the reaction mixtures to stop the reaction, retinoid was extracted using hexane and concentrated. The concentrated retinoid was dissolved in 150 μl of acetonitrile, separated by HPLC, and subjected to the detection of ultraviolet light absorption at a wavelength of 350 nm, whereby the substrate (all-trans retinol) and the product (all-trans retinal) were detected. In addition, standard samples (all-trans retinol and all-trans retinal) were separated by HPLC and the retention times of the respective standard samples were determined in advance. The solvent for HPLC was acetonitrile: 50 mM ammonium acetate=75:25. As the separation column, Syhergi 4 μm Hydro-RP 80A (manufactured by Phenomenex) was used. In addition, the flow rate was 2.0 ml/min. The RDH10 enzyme activity was calculated by reading the amount of product per fixed time from the chart of HPLC.
All-trans retinol, BSA, and NAD (nicotinamide adenine dinucleotide) as a coenzyme were added to a buffer for reaction (90 mM potassium phosphate buffer, pH7.4, 40 mM KCl) so as to have final concentrations of 10 μM, 10 μM, and 1 mM respectively. This mixture was taken in siliconized tubes by 200 μl for each, the microsomal fraction separated from RDH10-expressed 293T was added to separate tubes by 10 μl for each. The RDH10 inhibitor dissolved in DMSO was added to each tube so as to have a final concentration of 20 μM, and the same amount of DMSO was added to the control tube. The mixture was allowed to react at 37° C. for 15 to 30 minutes, 200 μl of methanol was added to the reaction mixtures, and then retinoid was extracted using hexane and concentrated. The concentrated retinoid was dissolved in 150 μl of acetonitrile, separated by HPLC, and subjected to the detection of ultraviolet light absorption at a wavelength of 350 nm, whereby the substrate (all-trans retinol) and the product (all-trans retinal) were detected. In addition, standard samples (all-trans retinol and all-trans retinal) were separated by HPLC and the retention times of the respective standard samples were determined in advance. The solvent for HPLC was acetonitrile: 50 mM ammonium acetate=75:25. As the separation column, Syhergi 4 μm Hydro-RP 80A (manufactured by Phenomenex) was used. The flow rate was 2.0 ml/min.
The enzyme activity was determined by the waveform area of the product (all-trans retinal) with respective to the waveform area of the non-reacted substrate (all-trans retinol), and the relative value with respect to the enzyme activity in the control is illustrated in FIG. 1. The error bars indicate SD (standard deviation).

Row | RDH10 enzyme activity inhibitory action | SMILES
1 | relatively potent | COC(=O)[C@@]1(C)CC[C@]2(C)CC[C@]3(C)C(=CC(=O)[C@@H]4[C@@]5(C)CCC(NC(=O)N[C@@H](Cc6ccccc6)C(=O)O)C(C)(C)[C@@H]5CC[C@]43C)[C@H]2C1 (stereo partly drawn) [Compound No. 14, (2S)-2-(3-((4aR,6aR,6bS,8aS,11S,12aS,14aR,14bS)-11-(methoxycarbonyl)-4,4,6a,6b,8a,11,14b-heptamethyl-14-oxo-1,2,3,4,4a,5,6,6a,6b,7,8,8a,9,10,11,12,12a,14,14a,14b-icosahydropicen-3-yl)ureido)-3-phenyl propanoic acid]
2 | relatively potent | COC(=O)c1ccccc1NC(=O)NC1CC[C@]2(C)[C@H]3C(=O)C=C4[C@H]5C[C@@](C)(C(=O)OC)CC[C@]5(C)CC[C@@]4(C)[C@]3(C)CC[C@H]2C1(C)C (stereo partly drawn) [Compound No. 9, (2S,4aS,6aS,6bR,8aR,12aS,12bR,14bS)-methyl 10-(3-(2-(methoxycarbonyl)phenyl)ureido)-2,4a,6a,6b,9,9,12a-heptamethyl-13-oxo-1,2,3,4,4a,5,6,6a,6b,7,8,8a,9,10,11,12,12a,12b,13,14b-icosahydropicene-2-carboxylate]
3 | relatively potent | CCOC(=O)CNC(=O)NC1CC[C@]2(C)[C@H]3C(=O)C=C4[C@H]5C[C@@](C)(C(=O)OC)CC[C@]5(C)CC[C@@]4(C)[C@]3(C)CC[C@H]2C1(C)C (stereo partly drawn) [Compound No. 10, (2S,4aS,6aS,6bR,8aR,12aS,12bR,14bS)-methyl 10-(3-(2-ethoxy-2-oxoethyl)ureido)-2,4a,6a,6b,9,9,12a-heptamethyl-13-oxo-1,2,3,4,4a,5,6,6a,6b,7,8,8a,9,10,11,12,12a,12b,13,14b-icosahydropicene-2-carboxylate]

System: Healthy human-derived CD4+CD45RO+T cells
Assay: Effect in vitro: CD62L and CD127 expression in cultured T cells by flow cytometry
Format: cell-based
Details: 20 μM; anti-CD3, anti-CD28, IL-2; vs DMSO control (FIG. 2)
Description: Healthy human-derived CD4^+CD45RO^+T cells (1×10^5) were cultured in the presence of anti-CD3 antibody (2 μg/ml), anti-CD28 antibody (2 μg/ml), IL-2 (20 IU/ml) and RDH10 inhibitors (Compound No. 16 (RDHI-032), Compound No. 17 (RDHI-033), and Compound No. 18 (RDHI-034)) (20 μM for each). In addition, DMSO was used as a control for the RDH10 inhibitor. After seven days […] resuspended in a fresh culture medium to which IL-2 was not added, and cultured for one more day. Thereafter, the expression of CD62L and CD127 in T cells was analyzed by flow cytometry. The culture solution used was X-VIVO15 to which AB serum was added to have a final concentration of 10%.

Row | SMILES | amplification of memory T cells (CD62L+CD127+T cells)
4 | CC1(C)C(N)CC[C@]2(C)[C@H]3C(=O)C=C4[C@@H]5C[C@@](C)(C(=O)O)CC[C@]5(C)CC[C@@]4(C)[C@]3(C)CC[C@@H]12.Cl (stereo partly drawn) [Compound No. 21, (2S,4aS,6aS,6bR,8aR,12aS,12bR,14bR)-10-amino-2,4a,6a,6b,9,9,12a-heptamethyl-13-oxo-1,2,3,4,4a,5,6,6a,6b,7,8,8a,9,10,11,12,12a,12b,13,14b-icosahydropicene-2-carboxylic acid hydrochloride] | tended to amplify memory cells
5 | CC1(C)C(NC(=O)c2ccccc2C(=O)O)CC[C@]2(C)[C@H]3C(=O)C=C4[C@@H]5C[C@@](C)(C(=O)O)CC[C@]5(C)CC[C@@]4(C)[C@]3(C)CC[C@@H]12 (stereo partly drawn) [Compound No. 27, (2S,4aS,6aS,6bR,8aR,12aS,12bR,14bR)-10-(2-carboxybenzamide)-2,4a,6a,6b,9,9,12a-heptamethyl-13-oxo-1,2,3,4,4a,5,6,6a,6b,7,8,8a,9,10,11,12,12a,12b,13,14b-icosahydropicene-2-carboxylic acid] | tended to amplify memory cells
6 | CC1(C)C(N)CC[C@]2(C)[C@H]3C(=O)C=C4[C@H]5C[C@@](C)(C(N)=O)CC[C@]5(C)CC[C@@]4(C)[C@]3(C)CC[C@@H]12 (stereo partly drawn) [Compound No. 19, (2S,4aS,6aS,6bR,8aR,12aS,12bR,14bS)-10-amino-2,4a,6a,6b,9,9,12a-heptamethyl-13-oxo-1,2,3,4,4a,5,6,6a,6b,7,8,8a,9,10,11,12,12a,12b,13,14b-icosahydropicene-2-carboxamide] | tended to amplify memory cells
7 | COC(=O)[C@@]1(C)CC[C@]2(C)CC[C@]3(C)C(=CC(=O)[C@@H]4[C@@]5(C)CCC(NC(=O)Nc6ccccc6C(=O)O)C(C)(C)[C@@H]5CC[C@]43C)[C@H]2C1 (stereo partly drawn) [Compound No. 12, 2-(3-((4aR,6aR,6bS,8aS,11S,12aS,14aR,14bS)-11-(methoxycarbonyl)-4,4,6a,6b,8a,11,14b-heptamethyl-14-oxo-1,2,3,4,4a,5,6,6a,6b,7,8,8a,9,10,11,12,12a,14,14a,14b-icosahydropicen-3-yl)ureido)benzoic acid] | tended to amplify memory cells
8 | COC(=O)[C@@]1(C)CC[C@]2(C)CC[C@]3(C)C(=CC(=O)[C@@H]4[C@@]5(C)CCC(NC(=O)c6ccccc6C(=O)O)C(C)(C)[C@@H]5CC[C@]43C)[C@H]2C1 (stereo partly drawn) [Compound No. 3, 2-((4aR,6aR,6bS,8aS,11S,12aS,14aR,14bS)-11-(methoxycarbonyl)-4,4,6a,6b,8a,11,14b-heptamethyl-14-oxo-1,2,3,4,4a,5,6,6a,6b,7,8,8a,9,10,11,12,12a,14,14a,14b-icosahydropicen-3-ylcarbamoyl)benzoic acid] | tended to amplify memory cells
9 | COC(=O)[C@H](Cc1ccccc1)NC(=O)NC1CC[C@]2(C)[C@H]3C(=O)C=C4[C@H]5C[C@@](C)(C(=O)OC)CC[C@]5(C)CC[C@@]4(C)[C@]3(C)CC[C@H]2C1(C)C (stereo partly drawn) [Compound No. 11, (2S,4aS,6aS,6bR,8aR,12aS,12bR,14bS)-methyl 10-(3-((S)-1-methoxy-1-oxo-3-phenylpropan-2-yl)ureido)-2,4a,6a,6b,9,9,12a-heptamethyl-13-oxo-1,2,3,4,4a,5,6,6a,6b,7,8,8a,9,10,11,12,12a,12b,13,14b-icosahydropicene-2-carboxylate] | tended to amplify memory cells
10 | CC1(C)C(=NO)CC[C@]2(C)[C@H]3C(=O)C=C4[C@H]5C[C@@](C)(C(N)=O)CC[C@]5(C)CC[C@@]4(C)[C@]3(C)CC[C@@H]12 [RDHI-038, (2S,4aS,6aS,6bR,8aR,12aS,12bR,14bS)-10-(hydroxyimino)-2,4a,6a,6b,9,9,12a-heptamethyl-13-oxo-1,2,3,4,4a,5,6,6a,6b,7,8,8a,9,10,11,12,12a,12b,13,14b-icosahydropicene-2-carboxamide] | tended to amplify memory cells
11 | CC1(C)C(N)CC[C@]2(C)[C@H]3C(=O)C=C4[C@H]5C[C@@](C)(C(=O)O)CC[C@]5(C)CC[C@@]4(C)[C@]3(C)CC[C@@H]12.Cl (stereo partly drawn) [Compound No. 20, (2S,4aS,6aS,6bR,8aR,12aS,12bR,14bS)-10-amino-2,4a,6a,6b,9,9,12a-heptamethyl-13-oxo-1,2,3,4,4a,5,6,6a,6b,7,8,8a,9,10,11,12,12a,12b,13,14b-icosahydropicene-2-carboxylic acid hydrochloride] | tended to amplify memory cells
12 | COC(=O)[C@@]1(C)CC[C@]2(C)CC[C@]3(C)C(=CC(=O)[C@@H]4[C@@]5(C)CCC(NC(=O)/C=C\C(=O)O)C(C)(C)[C@@H]5CC[C@]43C)[C@@H]2C1 (stereo partly drawn) [Compound No. 6, (Z)-4-((4aR,6aR,6bS,8aS,11S,12aR,14aR,14bS)-11-(methoxycarbonyl)-4,4,6a,6b,8a,11,14b-heptamethyl-14-oxo-1,2,3,4,4a,5,6,6a,6b,7,8,8a,9,10,11,12,12a,14,14a,14b-icosahydropicen-3-ylamino)-4-oxobut-2-enoic acid] | tended to amplify memory cells
